In patent US6492329B1, “Cytokine and hemopoietic factor endogenous production enhancer and methods of use thereof” (Novelos Therapeutics, Inc., priority 1995, dated 2002):

Assays:
[1] = system: e-ras cell line (REF transformed with E1A and ras-oncogene); experiment: Number of clones of e-ras cells throughout 72-hr incubation; type: cell-based, rat
Experimental: (§1) To this end, these substances had been incubated for 72 hours with cells of rat embrional fibroblasts (REF) and the same cells, transformed with adenoviral E1A gene in complementation with ras-oncogene (e-ras cell line). Subsequent evaluation of the cellularity of experimental samples was carried out by counting the quantity of cell per milliliter (for REF cell line) or clones in dish (for e-ras cell line).
(§2) Cells were cultivated on DMEM medium supplemented with 10% fetal calf serum and […] gentamicin. Cultivation was carried out in Petri dishes.
(§3) E-ras cells were seeded at a cell density of 300 cells per 5 cm dish. 7 days after growth of e-ras cells had been started the quantity of clones was evaluated and the test articles were added into the dishes.
(§4) For the test-system for estimation of apoptosis regulation UV-induced cell death was triggered in a dose of 4 Dj. Test articles were added immediately after irradiation. Then, the quantity of cell per milliliter (for REF cell line) or clones in dish (for e-ras cell line) were monitored every 24 hours. For determination of DNA-fragmentation the electrophoresis in agarose gel was used at standard settings.

[2] = system: HL-60 cells; experiment: Proliferation/apoptosis of HL-60 tumor cells (cell number per well, flow cytofluorometry)
Experimental: Subsequent evaluation of the cell cycle parameters was carried out by the flow cytofluorometry technique.
A mononuclear fraction of blood leukocytes were obtained by centrifugation in gradient of fikoll-metrizoat (Histopaque, Sigma). […] Cell viability was estimated by the Trypan blue exclusion method, then the cell suspension was placed into wells of 96-well microtiter plates—200,000 cells per well. […] Cultivation was carried out in closed flasks, the medium volume was 12 mL, it was changed every four days by centrifugation. The nature of the cells growth was suspensive. […] 50 μL of each test solution were added to one or the other cell culture and thereafter cells were cultivated for 24-96 hours. Then, they were tested by the flow cytofluorometry to estimate DNA content in the cell nuclei. In case of apoptosis-like cellular death, the portion of cell nuclei with normal content of DNA became reduced, while the portion of cell nuclei containing abnormally small DNA quantity became larger.
The analysis procedure was the following: after incubation completion, cells were centrifuged and transferred to a standard phosphate isotonic buffer pH 7.4, containing RNA-ase A (20 μg/mL), ethidium bromide (fluorometric indicator for double stranded nucleic acid. 10 μg/mL) and MgCl2 (5 mM). After the cells were disintegrated by nonionic detergent Triton X-100 (final concentration 0.1%). The suspension of cell nuclei thus obtained was analyzed by flow cytofluorometry with an argon laser as a source of light (wave length 488 nm). The red fluorescence due to DNA bound ethidium bromide was taken to be the measure of DNA content in the cell nuclei.

[3] = system: leukemia P388 cells; experiment: Leukemia P388 in mice: ascitic fluid and survival (Example 14); conditions: for Accumulation of ascitic (weight gain, %): leukemia P388
Experimental: (§6) An influence of 7 day course of test article daily administration was studied in respect of tumor progression, which was estimated using the two integral indices: pace of mouse weight gain due to accumulation of ascitic fluid, and by animal mean survival time after inoculation.
(§7) The study was carried out on DBA/2 mice weighing 18-21 g. First, tumor cell passage was performed using 6 animals for each cell line. For this, cells kept at the temperature of the liquid nitrogen were de-frozen and adjusted to the concentration of 5×10^6 cells/mL by sterile Hanks' solution. Then, 6 mice were intra peritoneally inoculated with 0.2 mL of each line cellular suspension.
(§8) Ascitic fluid was collected 6 days after the inoculation with L1210 cells, 8 days after the inoculation with P388 ones and 18 days after inoculation with Erlich adenocarcinoma cells. Thus obtained, the samples of passaged tumor cells were used for the main experiments. The fluid liquid was dissolved by sterile Hanks' solution so that cell concentration be 5×10^6 cells/mL for P388 cells and Erlich adenocarcinoma cells, 5×10^5 cells/mL for L1210 cells.
(§9) Eleven groups of animals with no less than 15 mice each were formed for experiments with either tumor cell line. Mice were inoculated with 0.2 mL of resultant cell suspensions per mouse (10^6 P388 and Erlich adenocarcinoma cells/mouse, and 10^5 L1210 cells/mouse). 24 hours after the tumor cells inoculation, animals were given the first injections of the test articles or vehicles. The test article injections were made daily till the 14th day of the experiment or till the animal death. The volume of solutions injected comprised 0.01 mL/g body weight.
(§10) #1—intact animals receiving imitation of tumor cell inoculation (injection of normal saline) which further were treated with normal saline throughout the entire experiment;
(§11) #2—control animals, inoculated with tumor cells, which further were treated with test article vehicle (normal saline);

[4] = system: leukemia P388 cells; experiment: Leukemia P388 in mice: serum cytokines, ascitic fluid, survival (Example 5); conditions: for Accumulation of ascitic fluid (weight gain) / Concentration in serum: IFNα / Concentration in serum: IL-1 / Concentration in serum: IL-2 / Concentration in serum: IL-6 / Concentration in serum: TNFα: P388 mice
Experimental: (§12) An influence of 7 day course of test article daily administration was studied in respect of variations of serum cytokine levels (IL-1, IL-2, IL-6, IFNα, TNF). In parallel, the tumor progression was estimated using the two integral indices: pace of mouse weight gain due to accumulation of ascitic fluid, and by animal mean survival time after inoculation.
(§13) The study was carried out on DBA/2 mice weighing 18-21 g. First, tumor cell passage was performed using 6 animals for each cell line. For this, cells kept at the temperature of the liquid nitrogen were de-frozen and adjusted to the concentration of 5×10^6 cells/mL by sterile Hanks' solution. Then, 6 mice were intraperitoneally inoculated with 0.2 mL of each line cellular suspension.
(§14) Ascitic fluid was collected 6 days after the inoculation with L1210 cells and 8 days after the inoculation with P388 ones. Thus obtained, the samples of passaged tumor cells were used for the main experiments. The fluid liquid was dissolved by sterile Hanks' solution so that cell concentration be 5×10^6 cells/mL for P388 cells and 5×10^5 cells/mL for L1210 cells.
(§15) Nine groups of animals with no less than 15 mice each were formed for experiments with either tumor cell line. Mice were inoculated with 0.2 mL of resultant cell suspensions per mouse (10^6 P388 cells/mouse, and 10^5 L1210 cells/mouse). 24 hours after the tumor cells inoculation. animals were given the first injections of the test articles or vehicles. The test article injections were made daily till the 14th day of the experiment or until the animal's death. The volume of solutions injected comprised 0.01 mL/g body weight.
as §10, §11

[5] = system: rat embrional fibroblasts (REF) after UV-irradiation; experiment: Number of REF cells after UV-irradiation; type: cell-based
Experimental: as §1, §2
(§5) REF cells was cultivated with initial density of 800 000 cell per mL, evaluation of the cellularity was performed at 0, 24, 48 and 72 hours of incubation with the test articles.
as §4

[6] = system: e-ras cells after UV-irradiation; experiment: Number of clones of e-ras cells after UV-irradiation; type: cell-based, rat
Experimental: as §1, §2, §3, §4

[7] = system: rat embrional fibroblasts (REF); experiment: Number of REF cells throughout 72-hr incubation; type: cell-based
Experimental: as §1, §2, §5, §4

[8] = system: leukemia L1210 cells; experiment: Leukemia L1210 in mice: ascitic fluid and survival (Example 14); conditions: for Accumulation of ascitic (weight gain, %): leukemia L1210
Experimental: as §6, §7, §8, §9, §10, §11

[9] = system: Erlich adenocarcinoma cells; experiment: Erlich adenocarcinoma in mice: ascitic fluid and survival (Example 14); conditions: for Accumulation of ascitic (weight gain, %): Erlich adenocarcinoma
Experimental: as §6, §7, §8, §9, §10, §11

[10] = system: normal human lymphocytes; experiment: Proliferation/apoptosis of normal human lymphocytes (cell number per well, flow cytofluorometry); type: cell-based
[11] = system: leukemia L1210 cells; experiment: Leukemia L1210 in mice: serum cytokines, ascitic fluid, survival (Example 5); conditions: for Accumulation of ascitic fluid (weight gain) / Concentration in serum: IFNα / Concentration in serum: IL-1 / Concentration in serum: IL-2 / Concentration in serum: IL-6 / Concentration in serum: TNFα: L1210 mice
Experimental: as §12, §13, §14, §15, §10, §11

O=c1[nH]cnc2c1ncn2[C@@H]1O[C@H](CO)[C@@H](O)[C@H]1O [0.1% inosine, hypoxanthine-9-D-ribofuranoside]
number of clones of e-ras cells (M ± m) ([1]; 0 hours of incubation): 292 ± 11 | number of clones of e-ras cells (M ± m) ([1]; 24 hours of incubation): 290 ± 8 | number of clones of e-ras cells (M ± m) ([1]; 48 hours of incubation): 269 ± 8 | number of clones of e-ras cells (M ± m) ([1]; 72 hours of incubation): 243 ± 8 | number of HL-60 cells per well ([2]; 24 hours incubation): 96 ± 8 × 10^4 cells | number of HL-60 cells per well ([2]; 48 hours incubation): 152 ± 8 × 10^4 cells | number of HL-60 cells per well ([2]; 72 hours incubation): 312 ± 21 × 10^4 cells | number of HL-60 cells per well ([2]; 96 hours incubation): 527 ± 18 × 10^4 cells | Accumulation of ascitic (weight gain, %) ([3]; number of injection 0): 0.5 ± 0.2% | Accumulation of ascitic (weight gain, %) ([3]; number of injection 3): 3.9 ± 0.4% | Accumulation of ascitic (weight gain, %) ([3]; number of injection 7): 16.6 ± 2.6% | Mean survival time ([3]; mice inoculated with leukemia P388 cells): 21.8 ± 0.6 | Accumulation of ascitic fluid (weight gain) ([4]; 0 injections): 0.58 ± 0.13% | Concentration in serum: IFNα ([4]; 0 injections): 81.4 ± 6.13 pg/mL | Concentration in serum: IL-1 ([4]; 0 injections): 36.7 ± 5.12 pg/mL | Concentration in serum: IL-2 ([4]; 0 injections): 16.50 ± 1.09 pg/mL | Concentration in serum: IL-6 ([4]; 0 injections): 115.0 ± 12.5 pg/mL | Concentration in serum: TNFα ([4]; 0 injections): 122.0 ± 10.0 pg/mL | Accumulation of ascitic fluid (weight gain) ([4]; 3 daily injections): 6.8 ± 0.8% | Concentration in serum: IFNα ([4]; 3 daily injections): 105. ± 11.3 pg/mL | Concentration in serum: IL-1 ([4]; 3 daily injections): 48.2 ± 7.13 pg/mL | Concentration in serum: IL-2 ([4]; 3 daily injections): 20.19 ± 1.54 pg/mL | Concentration in serum: IL-6 ([4]; 3 daily injections): 90.0 ± 7.11 pg/mL | Concentration in serum: TNFα ([4]; 3 daily injections): 96.5 ± 8.7 pg/mL | Accumulation of ascitic fluid (weight gain) ([4]; 7 daily injections): 25.0 ± 2.22% | Concentration in serum: IFNα ([4]; 7 daily injections): 184. ± 16.1 pg/mL | Concentration in serum: IL-1 ([4]; 7 daily injections): 31.0 ± 5.12 pg/mL | Concentration in serum: IL-2 ([4]; 7 daily injections): 13.40 ± 1.68 pg/mL | Concentration in serum: IL-6 ([4]; 7 daily injections): 129.0 ± 10.4 pg/mL | Concentration in serum: TNFα ([4]; 7 daily injections): 144.8 ± 12.9 pg/mL | Mean survival time ([4]; mice inoculated with leukemia P388 cells, daily injections till day 14 or death): 9.8 ± 0.21 | number of REF cells after UV-irradiation (M ± m) ([5]; 0 hours): 811 ± 10 × 10^3 cells | number of REF cells after UV-irradiation (M ± m) ([5]; 24 hours): 426 ± 24 × 10^3 cells | number of REF cells after UV-irradiation (M ± m) ([5]; 48 hours): 262 ± 22 × 10^3 cells | number of REF cells after UV-irradiation (M ± m) ([5]; 72 hours): 234 ± 28 × 10^3 cells | number of clones of e-ras cells after UV-irradiation (M ± m) ([6]; 0 hours): 292 ± 11 | number of clones of e-ras cells after UV-irradiation (M ± m) ([6]; 24 hours): 190 ± 8 | number of clones of e-ras cells after UV-irradiation (M ± m) ([6]; 48 hours): 129 ± 8 | number of clones of e-ras cells after UV-irradiation (M ± m) ([6]; 72 hours): 93 ± 8 | number of REF cells (M ± m) ([7]; 0 hours of incubation): 811 ± 10 × 10^3 cells | number of REF cells (M ± m) ([7]; 24 hours of incubation): 1426 ± 24 × 10^3 cells | number of REF cells (M ± m) ([7]; 48 hours of incubation): 2642 ± 25 × 10^3 cells | number of REF cells (M ± m) ([7]; 72 hours of incubation): 5034 ± 128 × 10^3 cells | Accumulation of ascitic (weight gain, %) ([8]; number of injection 0): 0.56 ± 0.2% | Accumulation of ascitic (weight gain, %) ([8]; number of injection 3): 7.9 ± 0.4% | Accumulation of ascitic (weight gain, %) ([8]; number of injection 7): 26.6 ± 2.4% | Mean survival time ([8]; mice inoculated with leukemia L1210 cells): 9.8 ± 0.6 | Accumulation of ascitic (weight gain, %) ([9]; number of injection 0): 0.8 ± 0.2% | Accumulation of ascitic (weight gain, %) ([9]; number of injection 3): 11.9 ± 0.2% | Accumulation of ascitic (weight gain, %) ([9]; number of injection 7): 26.8 ± 2.1% | Mean survival time ([9]; mice inoculated with Erlich adenocarcinoma cells): 10.1 ± 0.6 | number of normal lymphocytes per well ([10]; 24 hours incubation): 26 ± 4 × 10^4 cells | number of normal lymphocytes per well ([10]; 48 hours incubation): 78 ± 7 × 10^4 cells | number of normal lymphocytes per well ([10]; 72 hours incubation): 141 ± 12 × 10^4 cells | number of normal lymphocytes per well ([10]; 96 hours incubation): 216 ± 16 × 10^4 cells | Accumulation of ascitic fluid (weight gain) ([11]; 0 injections): 0.61% | Concentration in serum: IFNα ([11]; 0 injections): 117.3 pg/mL | Concentration in serum: IL-1 ([11]; 0 injections): 41.0 pg/mL | Concentration in serum: IL-2 ([11]; 0 injections): 17.80 pg/mL | Concentration in serum: IL-6 ([11]; 0 injections): 108. pg/mL | Concentration in serum: TNFα ([11]; 0 injections): 104.3 pg/mL | Accumulation of ascitic fluid (weight gain) ([11]; 3 daily injections): 7.02% | Concentration in serum: IFNα ([11]; 3 daily injections): 160.0 pg/mL | Concentration in serum: IL-1 ([11]; 3 daily injections): 55.6 pg/mL | Concentration in serum: IL-2 ([11]; 3 daily injections): 22.3 pg/mL | Concentration in serum: IL-6 ([11]; 3 daily injections): 91.0 pg/mL | Concentration in serum: TNFα ([11]; 3 daily injections): 130.0 pg/mL | Accumulation of ascitic fluid (weight gain) ([11]; 7 daily injections): 26.30% | Concentration in serum: IFNα ([11]; 7 daily injections): 205. pg/mL | Concentration in serum: IL-1 ([11]; 7 daily injections): 36.40 pg/mL | Concentration in serum: IL-2 ([11]; 7 daily injections): 14.6 pg/mL | Concentration in serum: IL-6 ([11]; 7 daily injections): 119. pg/mL | Concentration in serum: TNFα ([11]; 7 daily injections): 157.0 pg/mL | Mean survival time ([11]; mice inoculated with leukemia L1210 cells, daily injections till day 14 or death): 9.61 ± 0.18
